Measured values from patent publication US8501778B2, “Aralkyl piperidine derivatives and their uses as antalgic or ataractic agent” (priority 2008, dated 2013).
Where a name gives a salt, the structure may show the parent alone. Read-outs that look alike come from different tables or passages of the source.

Assays:
Kunming mice [1] = experiment: Hot Plate Method in mice (antalgic effect); assay type: in vivo; details: Mus musculus, read-out: Increasing rate of pain threshold (%)
Kunming mice [2] = experiment: Acetic Acid Twisting Method in mice (antalgic effect); assay type: in vivo; details: Mus musculus
[3] = sc, subcutaneous injection at neck, 1 hour after dosing, hot plate 55.5° C.
[4] = sc, 10 mg/kg, subcutaneous injection at neck, mice, read-out: twisting response inhibiting rate (%)
[5] = sc, 20 mg/kg, subcutaneous injection at neck, mice, read-out: twisting response inhibiting rate (%)
[6] = sc, 40 mg/kg, subcutaneous injection at neck, mice, read-out: twisting response inhibiting rate (%)
[7] = po, 1 h, gavage administration, hot plate
[8] = po, 10 mg/kg, gavage administration, mice, read-out: twisting response inhibiting rate (%)
[9] = po, 20 mg/kg, gavage administration, mice, read-out: twisting response inhibiting rate (%)
[10] = po, 40 mg/kg, gavage administration, mice, read-out: twisting response inhibiting rate (%)
[11] = sc, read-out: twisting response inhibiting rate (%)

Structure (SMILES)	change in vivo at 10 mg/kg (Kunming mice [1]; [3]) [%]	change in vivo at 20 mg/kg (Kunming mice [1]; [3]) [%]	change in vivo at 40 mg/kg (Kunming mice [1]; [3]) [%]	inhibition in vivo at 20 mg/kg (Kunming mice [2]; sc, read-out: antalgic) [%]	inhibition in vivo at 10 mg/kg (Kunming mice [2]; [4]) [%]	inhibition in vivo at 20 mg/kg (Kunming mice [2]; [5]) [%]	inhibition in vivo at 40 mg/kg (Kunming mice [2]; [6]) [%]	change in vivo at 10 mg/kg (Kunming mice [1]; [7]) [%]	change in vivo at 20 mg/kg (Kunming mice [1]; [7]) [%]	inhibition in vivo at 10 mg/kg (Kunming mice [2]; [8]) [%]	inhibition in vivo at 20 mg/kg (Kunming mice [2]; [9]) [%]	inhibition in vivo at 40 mg/kg (Kunming mice [2]; [10]) [%]	inhibition in vivo at 10 mg/kg (Kunming mice [2]; [11]) [%]	inhibition in vivo at 20 mg/kg (Kunming mice [2]; [11]) [%]	inhibition in vivo at 40 mg/kg (Kunming mice [2]; [11]) [%]	change in vivo at 40 mg/kg (Kunming mice [1]; [7]) [%]
CC(c1ccc(N2CCOCC2)cc1)N1CCC(Cl)(CC(=O)c2ccccc2)CC1 (stereo not shown) [IX-7, N-(1-(4-morpholinophenyl)ethyl)-4-benzoylmethyl-4-chloropiperidine hydrochloride]	79.5	101	130	72	66	60.3	76.4	–	–	–	–	–	–	–	–	–
O=C(CC1(O)CCN(Cc2ccc(F)cc2)CC1)c1ccccc1 [III-3, N-p-fluorobenzyl-4-benzoylmethyl-4-piperidinol hydrochloride]	11.9	18.5	29.4	76	69.4	77.2	71.5	–	–	–	–	–	–	–	–	–
O=C(CC1(O)CCN(C(c2ccccc2)c2ccccc2)CC1)c1ccccc1 [III-7, N-diphenylmethyl-4-benzoylmethyl-4-piperidinol hydrochloride]	–	–	–	45	–	–	–	82.8	126	25.8	38	44.2	–	–	–	–
O=C(CC1(O)CCN(Cc2ccc([N+](=O)[O-])cc2)CC1)c1ccccc1 [III-4, N-p-nitrobenzyl-4-benzoylmethyl-4-piperidinol hydrochloride]	19.8	6.47	15.9	100	–	–	–	–	–	–	–	–	100	100	100	–
OC(CC1(O)CCN(C(c2ccccc2)c2ccccc2)CC1)c1ccccc1 (stereo not shown) [Compound V-3, N-diphenylmethyl-4-(2-hydroxy-2-phenylethyl)-4-piperidinol hydrochloride]	–	–	–	84	–	–	–	64.1	86.8	60.6	49.8	68.1	–	–	–	136
O=C(CC1(O)CCN(Cc2ccccc2)CC1)c1ccccc1 [III-1, N-benzyl-4-benzoylmethyl-4-piperidinol hydrochloride]	99.7	89	148	62	73.3	59.4	91.1	–	–	–	–	–	–	–	–	–
Nc1ccc(CN2CCC(O)(CC(=O)c3ccccc3)CC2)cc1 [III-5, N-p-aminobenzyl-4-benzoylmethyl-4-piperidinol hydrochloride]	58.3	75.6	190	100	–	–	–	–	–	–	–	–	100	100	100	–
COc1ccc(C(C)N2CCC(F)(CC(=O)c3ccccc3)CC2)cc1 (stereo not shown) [IX-1, N-(1-(p-methoxyphenyl)ethyl)-4-benzoylmethyl-4-fluoropiperidine hydrochloride]	86.4	109	156	76	60.4	68.7	81	–	–	–	–	–	–	–	–	–
